Experiment [1] relates to HepG2. As to the kind of experiment: Inhibition of lipogenesis in human HepG2 cells assessed as reduction in sterol synthesis. The format is functional, cell-based. As to conditions: dose 12.5-50 µM, DDE = dose-dependent effect.
The subject of experiment [2] is HepG2. As to the kind of experiment: Inhibition of lipogenesis in human HepG2 cells assessed as reduction in fatty acids synthesis. As to conditions: dose 0.1-1 µM, DDE = dose-dependent effect. The format is functional, cell-based.

For the compound `COC(=O)Cc1cc(O)cc2c1O[C@@](C)(CCC=C(C)C)C=C2`, in experiment [1], the “dose-dependent inhibition (qualitative)” value was “Dde”. For the compound `COC(=O)C[C@@]1(C/C=C(\C)CCC=C(C)C)CC(=O)C=C[C@@H]1O`, in experiment [2], the inhibition entry was “Dde”. For the same compound, the “dose-dependent inhibition (qualitative)” value in experiment [1] is “Dde”. Consider `COC(=O)[C@@]1(O)c2cc(O)cc(C/C=C(\C)CCC=C(C)C)c2O[C@@]2(C)C=C[C@H](C(C)C)C[C@@H]12`, for which, in experiment [1], the “dose-dependent inhibition (qualitative)” value was “Dde”. Same read-out and setting: in the case of `COC(=O)[C@H]1c2cc(O)cc(C/C=C(\C)CCC=C(C)C)c2O[C@@]2(C)[C@@H](O)C=C(C(C)C)C[C@@H]12` it was “Dde”.

For the origin of these results see ChEMBL document CHEMBL5120966, “Spicatulides A-G, Phenolic-Monoterpenoid Hybrids from Chloranthus spicatus” (J Nat Prod, 2022).
